Converted amounts (≈) assume the structure as drawn. Read-outs that look alike come from different tables or passages of the source.
Columns and labels:
[1] = MTD determination in mice (Examples 27, 36, 44); assay type: in vivo; conditions: mice, monitored for 14 d
From the text: Test animals: 6-8 weeks old mice, all female; mice were grouped randomly, with six mice in each group, administered with drugs at different concentration gradients separately and monitored for 14 d. A mouse was euthanized at a loss of 20% of its initial weight and deemed to have died of poisoning.

[2] = system: colo320 colorectal cancer tumor model; conditions: 5 mg/kg once a week for four weeks
Procedure: Test objective: To investigate the antitumor efficacy of the above compounds in an animal tumor model of colo320 colorectal cancer.
(§1) Test drug: Polypeptide conjugate, Irinotecan, Belotecan and normal saline control group.
(§2) Test animals: 6-8 weeks old BALB/c mice, all female.
(§3) Passaging was performed every three days, and cells within 15 generations were used. 7.5×10^6 corresponding cells were injected into right chests of nude mice subcutaneously. After a volume of the tumors reached at least 120 mm^3, the mice were grouped randomly, with three mice in each group. Then treatment was started, and the day when the treatment was started was the first day. […] The control group was administered with normal saline. Administration was performed once a week for four weeks.

[3] = system: A549 (non-small cell lung cancer); assay: cells; assay type: cell-based; conditions: CCK8, 48 h; for IC50 A549 (non-small cell lung cancer): Table 1; for IC50 Non-small cell lung cancer tissue (A549): Table 6
Procedure: (§4) Different types of cells were cultured with complete media (RPMI1640 (DMEM high sugar medium)+10% fetal bovine serum+1XP/S+sodium pyruvate 1 mM solution) in an incubator at 37° C. and 5% CO2 until the cells grew to a sufficient number, and the cells were collected, centrifuged at 1,000 g for 5 min, resuspended with an appropriate volume of a 10% RMPI1640 (DMEM high sugar medium) medium and counted. In a 96-well culture plate, 100 μL of cell culture fluid containing different concentrations of drugs was added, control wells (0.1% DMSO) with only corresponding drug solvents without drugs, as well as blank wells (Blank) with only the medium but without cells were set, and three parallel wells were set in each group. After that, the cells after cell counting were inoculated onto 96-well culture plates, with 100 μL of cell suspension per well, and an inoculation concentration of the cells was 5,000 cells (100 μL)/well. The plates were then cultured in a CO2 (5%) incubator at 37° C. for 48 h. After 48 h, 10 μL of a cell proliferation staining reagent (CCK8) was added to each well, the plates were incubated in a cell incubator for around 2 h, and an absorbance at 450 nm was detected.
(§5) Cell survival rates and median inhibitory concentrations of the drugs on the cells were calculated.
as §4, with “serum+1×P/S+sodium” for “serum+1XP/S+sodium”, “adjusted to an appropriate density.” for “counted.”
(§6) Cell survival rates and median inhibitory concentrations (IC50) of the drugs on the cells were calculated.

[4] = system: SKBR3 (breast cancer tissue); assay: cells; assay type: cell-based; conditions: CCK8, 48 h; for IC50 SKBR3 (breast cancer tissue): Table 1; for IC50 Breast cancer tissue (SKBR3): Table 6
Procedure: as §4, §5
as §4, with “serum+1×P/S+sodium” for “serum+1XP/S+sodium”, “adjusted to an appropriate density.” for “counted.”
as §6

A2780 (ovarian cancer) = assay: cells; assay type: cell-based; conditions: CCK8, 48 h; for IC50 A2780 (ovarian cancer): Table 1; for IC50 Ovarian cancer tissue (A2780): Table 6
Procedure: as §4, §5
as §4, with “serum+1×P/S+sodium” for “serum+1XP/S+sodium”, “adjusted to an appropriate density.” for “counted.”
as §6

SJSA-1 (sarcoma tissue) = assay: cells; assay type: cell-based; conditions: CCK8, 48 h; for IC50 SJSA-1 (sarcoma tissue): Table 1; for IC50 Sarcoma tissue (SJSA-1): Table 6
Procedure: as §4, §5
as §4, with “serum+1×P/S+sodium” for “serum+1XP/S+sodium”, “adjusted to an appropriate density.” for “counted.”
as §6

[5] = system: sarcoma SJSA-1 tumor model; conditions: 5 mg/kg once a week for three weeks
Procedure: Test objective: To investigate the antitumor efficacy of the above compounds in an animal tumor model of sarcoma SJSA-1.
as §1, §2
as §3, with “SJSA-1 cells were purchased from ATCC and cultured in a DMEM medium containing 10% fetal bovine serum at 37° C. in 5% CO2. Passaging” for “Passaging”, “2×10^7” for “7.5×10^6”, “100” for “120”, “three” for “four”
as §3, with “SJSA-1 cells were purchased from ATCC and cultured in a DMEM medium containing 10% fetal bovine serum at 37° C. in 5% CO2. Passaging” for “Passaging”, “2×10^7” for “7.5×10^6”, “100” for “120”, “three” for “four”

[6] = system: colo320 (colorectal cancer tissue); assay: cells; assay type: cell-based; conditions: CCK8, 48 h; Table 6
Procedure: as §4, with “serum+1×P/S+sodium” for “serum+1XP/S+sodium”, “adjusted to an appropriate density.” for “counted.”
as §6

Row | SMILES | MTD ([1]; Table 4) | MTD ([1]; Table 9) | Mouse weight (%) ([2]; Table 3) | colo320 (colorectal cancer cell) growth rate (%) ([2]; Table 3) | colo320 (colorectal cancer cell) mean tumor volume (mm^3) ([2]; Table 3) | Mouse weight (%) ([2]; Table 8) | colo320 (colorectal cancer cell) growth rate (%) ([2]; Table 8) | colo320 (colorectal cancer cell) mean tumor volume (mm^3) ([2]; Table 8) | IC50 A549 (non-small cell lung cancer) [3] | IC50 Non-small cell lung cancer tissue (A549) [3] | IC50 SKBR3 (breast cancer tissue) [4] | IC50 Breast cancer tissue (SKBR3) [4] | IC50 A2780 (ovarian cancer) (A2780 (ovarian cancer)) | IC50 Ovarian cancer tissue (A2780) (A2780 (ovarian cancer)) | IC50 SJSA-1 (sarcoma tissue) (SJSA-1 (sarcoma tissue)) | IC50 Sarcoma tissue (SJSA-1) (SJSA-1 (sarcoma tissue)) | Mouse weight (%) ([5]; Table 2) | SJSA-1 (sarcoma tissue) mean tumor volume (mm^3) ([5]; Table 2) | SJSA-1 (sarcoma) Growth rate (%) ([5]; Table 2) | Mouse weight (%) ([5]; Table 7) | other results
1 | CC[C@@]1(O)C(=O)OCc2c1cc1n(c2=O)Cc2c-1nc1ccccc1c2CCNCC(C)C [D5] | 30 mg/kg | 30 mg/kg | +8% | 991.91% | 1098.6 mm^3 | +8% | 991.91% | 1098.6 mm^3 | 0.019 µg/mL (≈ 0.0425 µM) | 0.019 µg/mL (≈ 0.0425 µM) | 13 ng/mL (≈ 0.029 µM) | 13 ng/mL (≈ 0.029 µM) | 14 ng/mL (≈ 0.0313 µM) | 14 ng/mL (≈ 0.0313 µM) | 12 ng/mL (≈ 0.0268 µM) | 12 ng/mL (≈ 0.0268 µM) | −5% | 1443.2 mm^3 | 1248.78% | −5% | SJSA-1 (sarcoma tissue) growth rate (%) ([5]; Table 7): 1248.78%; SJSA-1 (sarcoma tissue) mean tumor volume (mm^3) ([5]; Table 7): 1443.2 mm^3; IC50 Colorectal cancer tissue (colo320) [6]: 0.029 µg/mL (≈ 0.0648 µM)
2 | CC[C@@]1(O)C(=O)OCc2c1cc1n(c2=O)Cc2c-1nc1ccccc1c2CCNC1CC1 [D6] | 10 mg/kg | 10 mg/kg | −4% | 715.73% | 787.3 mm^3 | −4% | 710.84% | 787.3 mm^3 | 0.0025 µg/mL (≈ 0.00579 µM) | 0.0025 µg/mL (≈ 0.00579 µM) | 3.8 ng/mL (≈ 0.00881 µM) | 3.8 ng/mL (≈ 0.00881 µM) | 2.9 ng/mL (≈ 0.00672 µM) | 2.9 ng/mL (≈ 0.00672 µM) | 1.8 ng/mL (≈ 0.00417 µM) | 1.8 ng/mL (≈ 0.00417 µM) | +4% | 961.3 mm^3 | 828.71% | +4% | SJSA-1 (sarcoma tissue) growth rate (%) ([5]; Table 7): 831.80%; SJSA-1 (sarcoma tissue) mean tumor volume (mm^3) ([5]; Table 7): 961.3 mm^3; IC50 Colorectal cancer tissue (colo320) [6]: 0.0048 µg/mL (≈ 0.0111 µM)

From patent US20250235545A1, “POLYPEPTIDE CONJUGATE AND USE THEREOF” (SHANGHAI CHIXI BIOMEDICAL TECHNOLOGY CO., LTD, priority 2024, published 2025)
